Results from ChEMBL document CHEMBL1909046, “DrugMatrix in vitro pharmacology data”.

Key:
[1] = biological target: T1, Alpha-1A adrenergic receptor (Rattus norvegicus, UniProt P43140); assay: DRUGMATRIX: Alpha-1A adrenergic receptor radioligand binding (ligand: prazosin); type: cell membranes, Wistar, Submaxillary gland, Membrane; details: Not Active = under 50% inhibition at 10 µM
T1 sequence (P43140 whole entry): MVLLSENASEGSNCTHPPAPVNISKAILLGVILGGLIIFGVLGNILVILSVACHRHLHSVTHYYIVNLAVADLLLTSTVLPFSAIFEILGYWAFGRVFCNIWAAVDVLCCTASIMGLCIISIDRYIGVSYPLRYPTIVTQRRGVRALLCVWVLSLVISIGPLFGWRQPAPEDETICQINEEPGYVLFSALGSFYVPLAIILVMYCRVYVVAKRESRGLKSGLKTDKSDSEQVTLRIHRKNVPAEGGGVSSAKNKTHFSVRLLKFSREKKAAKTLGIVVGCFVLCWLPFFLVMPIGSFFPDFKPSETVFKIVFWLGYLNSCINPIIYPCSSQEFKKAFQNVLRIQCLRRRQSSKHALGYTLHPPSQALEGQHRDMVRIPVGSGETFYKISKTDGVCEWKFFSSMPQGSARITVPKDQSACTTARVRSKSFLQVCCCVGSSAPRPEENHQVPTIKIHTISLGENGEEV

[2] = DRUGMATRIX: Calcium Channel Type L, Benzothiazepine radioligand binding (ligand: [3H] Diltiazem); type: cell membranes, Rattus norvegicus, Wistar, Brain, Membrane; details: Not Active = under 50% inhibition at 10 µM
[3] = DRUGMATRIX: Glutamate, AMPA radioligand binding (ligand: [3H] AMPA); type: cell membranes, Rattus norvegicus, Wistar, Cerebral cortex, Membrane; details: Not Active = under 50% inhibition at 10 µM
[4] = biological target: T2, Amine oxidase [flavin-containing] A (Homo sapiens, UniProt P21397); assay: DRUGMATRIX: Monoamine Oxidase MAO-A enzyme inhibition (substrate: Kynuramine); parameters: species or system BTI-TN-5B1-4; details: bti-tn-5b1-4; Not Active = under 50% inhibition at 10 µM
T2 sequence (P21397 whole entry): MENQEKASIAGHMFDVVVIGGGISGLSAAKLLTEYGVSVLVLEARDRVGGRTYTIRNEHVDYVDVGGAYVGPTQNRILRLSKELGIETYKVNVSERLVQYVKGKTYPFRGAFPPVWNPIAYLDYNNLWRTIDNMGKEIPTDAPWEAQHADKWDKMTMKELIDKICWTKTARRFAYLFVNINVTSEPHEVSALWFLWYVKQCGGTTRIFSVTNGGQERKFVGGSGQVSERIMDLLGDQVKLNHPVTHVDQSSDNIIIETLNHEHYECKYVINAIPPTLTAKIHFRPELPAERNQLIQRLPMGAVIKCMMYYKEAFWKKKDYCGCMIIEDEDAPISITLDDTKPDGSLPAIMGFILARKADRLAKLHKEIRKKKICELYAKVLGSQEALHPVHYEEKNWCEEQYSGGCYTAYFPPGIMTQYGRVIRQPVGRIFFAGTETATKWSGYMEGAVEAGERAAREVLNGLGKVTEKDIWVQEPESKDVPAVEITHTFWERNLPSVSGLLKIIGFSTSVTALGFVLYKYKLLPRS

[5] = DRUGMATRIX: Potassium Channel [KATP] radioligand binding (ligand: [3H] Glyburide); type: cell membranes, Membrane; details: hit-t15; Not Active = under 50% inhibition at 10 µM
[6] = biological target: Matrix metalloproteinase-9 (Homo sapiens, UniProt P14780); assay: biochemical; type: cell-based;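 further: inhibition of isolated MMP-9 enzyme activity toward a synthetic peptide substrate, from the DrugMatrix protease screening panel; in other assays of this panel Not Active means under 50% inhibition at 10 µM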
Sequence of Matrix metalloproteinase-9 (P14780 whole entry): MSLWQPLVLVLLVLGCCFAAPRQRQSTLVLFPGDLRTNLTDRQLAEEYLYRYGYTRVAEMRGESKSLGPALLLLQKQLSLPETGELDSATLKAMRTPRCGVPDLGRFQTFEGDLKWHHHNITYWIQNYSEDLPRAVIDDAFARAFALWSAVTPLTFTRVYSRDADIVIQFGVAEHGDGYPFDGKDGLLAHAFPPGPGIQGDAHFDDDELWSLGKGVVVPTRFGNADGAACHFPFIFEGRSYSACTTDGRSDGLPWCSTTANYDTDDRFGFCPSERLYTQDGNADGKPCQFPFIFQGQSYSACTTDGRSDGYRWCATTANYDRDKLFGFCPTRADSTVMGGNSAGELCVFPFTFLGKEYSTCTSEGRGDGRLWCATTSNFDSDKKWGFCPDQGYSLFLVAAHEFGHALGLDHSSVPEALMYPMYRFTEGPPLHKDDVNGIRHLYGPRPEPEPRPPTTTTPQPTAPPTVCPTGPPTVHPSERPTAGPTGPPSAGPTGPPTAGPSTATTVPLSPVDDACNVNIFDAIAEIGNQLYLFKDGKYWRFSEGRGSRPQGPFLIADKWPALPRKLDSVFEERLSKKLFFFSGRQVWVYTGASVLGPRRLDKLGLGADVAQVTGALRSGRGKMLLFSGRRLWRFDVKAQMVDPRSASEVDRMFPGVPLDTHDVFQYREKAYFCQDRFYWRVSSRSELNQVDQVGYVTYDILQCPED

[7] = biological target: T3, Adenosine receptor A1 (Homo sapiens, UniProt P30542); type: cell membranes, Membrane; details: cho;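 further: radioligand binding assay at the adenosine A1 receptor, with DPCPX serving as the labelled ligand; in other assays of this panel Not Active means under 50% inhibition at 10 µM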
T3 sequence (P30542 whole entry): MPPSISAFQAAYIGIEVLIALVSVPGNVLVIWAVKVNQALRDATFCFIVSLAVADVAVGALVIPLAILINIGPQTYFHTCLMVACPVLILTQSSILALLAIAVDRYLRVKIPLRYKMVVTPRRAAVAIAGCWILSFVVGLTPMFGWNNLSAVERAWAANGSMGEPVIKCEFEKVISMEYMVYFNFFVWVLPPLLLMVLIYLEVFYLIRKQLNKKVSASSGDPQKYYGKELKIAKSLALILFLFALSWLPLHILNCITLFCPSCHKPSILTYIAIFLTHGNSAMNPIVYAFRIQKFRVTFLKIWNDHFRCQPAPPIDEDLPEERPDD

CC1(C)O[C@@H]2C[C@H]3[C@@H]4C[C@H](F)C5=CC(=O)CC[C@]5(C)[C@H]4[C@@H](O)C[C@]3(C)[C@]2(C(=O)CO)O1 [FLURANDRENOLIDE]
Not Active: IC50 [1] | IC50 [2] | Ki [2] | IC50 [3] | Ki [3] | IC50 [4] | IC50 [5] | Ki [5] | IC50 [6] | IC50 [7]

CN(C)c1ccc(C(=C2C=CC(=[N+](C)C)C=C2)c2ccc(N(C)C)cc2)cc1.[Cl-] [GENTIAN VIOLET]
Not Active: IC50 [1] | IC50 [2] | Ki [2] | IC50 [3] | Ki [3] | IC50 [4] | IC50 [5] | Ki [5] | IC50 [6] | IC50 [7]

Cc1ccc(S(=O)(=O)NC(=O)NN2CC3CCCC3C2)cc1 (stereo not given) [GLICLAZIDE]
Not Active: IC50 [1] | IC50 [2] | Ki [2] | IC50 [3] | Ki [3] | IC50 [4] | IC50 [5] | Ki [5] | IC50 [6] | IC50 [7]

NC(=O)NO [HYDROXYUREA]
Not Active: IC50 [1] | IC50 [2] | Ki [2] | IC50 [3] | Ki [3] | IC50 [4] | IC50 [5] | Ki [5] | IC50 [6] | IC50 [7]

CC(C)Cc1ccc(C(C)C(=O)O)cc1 (stereo not given) [IBUPROFEN]
Not Active: IC50 [1] | IC50 [2] | Ki [2] | IC50 [3] | Ki [3] | IC50 [4] | IC50 [5] | Ki [5] | IC50 [6] | IC50 [7]

COc1ccc2c(c1)c(CC(=O)O)c(C)n2C(=O)c1ccc(Cl)cc1 [INDOMETHACIN]
Not Active: IC50 [1] | IC50 [2] | Ki [2] | IC50 [3] | Ki [3] | IC50 [4] | IC50 [5] | Ki [5] | IC50 [6] | IC50 [7]

CCc1c2c(nc3ccc(OC(=O)N4CCC(N5CCCCC5)CC4)cc13)-c1cc3c(c(=O)n1C2)COC(=O)[C@]3(O)CC [IRINOTECAN]
Not Active: IC50 [1] | IC50 [2] | Ki [2] | IC50 [3] | Ki [3] | IC50 [4] | IC50 [5] | Ki [5] | IC50 [6] | IC50 [7]

CC(C(=O)O)c1cccc(C(=O)c2ccccc2)c1 (stereo not given) [KETOPROFEN]
Not Active: IC50 [1] | IC50 [2] | Ki [2] | IC50 [3] | Ki [3] | IC50 [4] | IC50 [5] | Ki [5] | IC50 [6] | IC50 [7]

Nc1ccn([C@@H]2CS[C@H](CO)O2)c(=O)n1 [LAMIVUDINE]
Not Active: IC50 [1] | IC50 [2] | Ki [2] | IC50 [3] | Ki [3] | IC50 [4] | IC50 [5] | Ki [5] | IC50 [6] | IC50 [7]

O=S(=O)([O-])CCS.[Na+] [MESNA]
Not Active: IC50 [1] | IC50 [2] | Ki [2] | IC50 [3] | Ki [3] | IC50 [4] | IC50 [5] | Ki [5] | IC50 [6] | IC50 [7]

C#C[C@]1(O)CC[C@H]2[C@@H]3CCc4cc(OC)ccc4[C@H]3CC[C@@]21C [MESTRANOL]
Not Active: IC50 [1] | IC50 [2] | Ki [2] | IC50 [3] | Ki [3] | IC50 [4] | IC50 [5] | Ki [5] | IC50 [6] | IC50 [7]

CC(=O)Nc1cccc(O)c1 [METACETAMOL]
Not Active: IC50 [1] | IC50 [2] | Ki [2] | IC50 [3] | Ki [3] | IC50 [4] | IC50 [5] | Ki [5] | IC50 [6] | IC50 [7]

Cc1ncc([N+](=O)[O-])n1CCO [METRONIDAZOLE]
Not Active: IC50 [1] | IC50 [2] | Ki [2] | IC50 [3] | Ki [3] | IC50 [4] | IC50 [5] | Ki [5] | IC50 [6] | IC50 [7]

CC(C)(C(=O)c1cccnc1)c1cccnc1 [METYRAPONE]
Not Active: IC50 [1] | IC50 [2] | Ki [2] | IC50 [3] | Ki [3] | IC50 [4] | IC50 [5] | Ki [5] | IC50 [6] | IC50 [7]

Oc1ccc(OCc2ccccc2)cc1 [MONOBENZONE]
Not Active: IC50 [1] | IC50 [2] | Ki [2] | IC50 [3] | Ki [3] | IC50 [4] | IC50 [5] | Ki [5] | IC50 [6] | IC50 [7]

CC(C)(Oc1ccc(C2CCCc3ccccc32)cc1)C(=O)O (stereo not given) [NAFENOPIN]
Not Active: IC50 [1] | IC50 [2] | Ki [2] | IC50 [3] | Ki [3] | IC50 [4] | IC50 [5] | Ki [5] | IC50 [6] | IC50 [7]
